Experimental data: paper PMC11904993, “Humanized Candida and NanoBiT Assays Expedite Discovery of Bdf1 Bromodomain Inhibitors With Antifungal Potential” (Advanced Science, 2025)
Several values for one entry are separate records, joined by “and”; a condition that tells them apart may be missing. Identical values can stand only once. Like-named read-outs stand apart in the source and are kept apart here.

What was measured:
human Brd4 BD1 = human Brd4 BD1 (Homo sapiens, UniProt O60885); test: HTRF assay, inhibition of H4ac4 peptide binding; conditions: Brd4 BD1
human Brd4 BD2 = target: T1, human Brd4 BD2 (Homo sapiens, UniProt O60885); test: HTRF assay, inhibition of H4ac4 peptide binding; conditions: Brd4 BD2
T1 construct: GST‐tagged BD2 (residues 349–460) from human Brd4 (UniProt ID O60885); purchased Reaction Biology Corp

CaBdf1 BD1 = target: T2, CaBdf1 BD1 (Candida albicans, UniProt Q5A4W8); test: HTRF assay, inhibition of H4ac4 peptide binding; set-up: species or system C. albicans
T2 construct: BD1 (residues 193–327) and BD2 (residues 361–501) from CaBdf1 (Uniprot ID Q5A4W8); made in house; host or cells: E. coli BL21(DE3)
T2 sequence (Q5A4W8 193-327): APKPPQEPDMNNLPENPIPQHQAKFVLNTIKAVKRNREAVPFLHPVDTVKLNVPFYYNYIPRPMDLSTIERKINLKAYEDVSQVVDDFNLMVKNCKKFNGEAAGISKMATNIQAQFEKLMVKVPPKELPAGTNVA

[1] = tested on: C. glabrata expressing humanized Bdf1 (Brd4 BDs); test: Growth inhibition in liquid media, humanized C. glabrata strains
Description: Growth on Liquid Media with C. glabrata Lab Strains: Cells were grown at 30 °C in SC+M+C‐U medium (SC medium with 5 mM methionine, 0.25 mM cysteine, without uracil) to an OD600 of 0.5–0.8. […] Plates were incubated at 30 °C and OD600 was measured using a Multiskan FC Microplate Photometer (Thermo Fisher).

[2] = read-out: HTRF signal, normalized (Figure 5A data)

SMILES: CC(=O)N1c2ccc(-c3ccc(C(=O)O)cc3)cc2C(Nc2ccc(Cl)cc2)CC1C (stereo not shown) [I-BET726]
- HTRF signal, normalized (Figure 5A data) (human Brd4 BD1; 0.0537 nM): 104.39 and 100.71 and 99.92 and 101.07
- HTRF signal, normalized (Figure 5A data) (human Brd4 BD1; 0.13 nM): 104.60 and 101.29 and 100.85 and 99.75
- HTRF signal, normalized (Figure 5A data) (human Brd4 BD1; 0.34 nM): 101.49 and 102.55 and 101.26 and 101.01
- HTRF signal, normalized (Figure 5A data) (human Brd4 BD1; 0.84 nM): 100.78 and 99.59 and 99.33 and 97.74
- HTRF signal, normalized (Figure 5A data) (human Brd4 BD1; 2.10 nM): 99.49 and 98.84 and 98.60
- HTRF signal, normalized (Figure 5A data) (human Brd4 BD1; 5.24 nM): 95.52 and 94.38 and 93.54 and 94.69
- HTRF signal, normalized (Figure 5A data) (human Brd4 BD1; 13.11 nM): 83.95 and 83.77 and 84.76 and 83.85
- HTRF signal, normalized (Figure 5A data) (human Brd4 BD1; 32.77 nM): 48.83 and 48.92 and 64.32 and 62.36
- HTRF signal, normalized (Figure 5A data) (human Brd4 BD1; 81.92 nM): 17.12 and 16.89 and 27.28 and 27.02
- HTRF signal, normalized (Figure 5A data) (human Brd4 BD1; 204.8 nM): 4.51 and 4.84 and 6.56 and 8.13
- HTRF signal, normalized (Figure 5A data) (human Brd4 BD1; 512 nM): 0.14 and 0.27 and 0.17 and 0.18
- HTRF signal, normalized (Figure 5A data) (human Brd4 BD2; 0.0537 nM): 102.97 and 106.08 and 108.84 and 105.09
- HTRF signal, normalized (Figure 5A data) (human Brd4 BD2; 0.13 nM): 103.72 and 102.37 and 103.68 and 103.57
- HTRF signal, normalized (Figure 5A data) (human Brd4 BD2; 0.34 nM): 94.46 and 91.58 and 95.80 and 94.95
- HTRF signal, normalized (Figure 5A data) (human Brd4 BD2; 0.84 nM): 79.67 and 69.64 and 75.99 and 78.48
- HTRF signal, normalized (Figure 5A data) (human Brd4 BD2; 2.10 nM): 45.84 and 41.04 and 44.03 and 46.83
- HTRF signal, normalized (Figure 5A data) (human Brd4 BD2; 5.24 nM): 8.26 and 9.91 and 8.75 and 10.80
- HTRF signal, normalized (Figure 5A data) (human Brd4 BD2; 32.77 nM): 3.03 and 2.91 and 2.46 and 2.11
- HTRF signal, normalized (Figure 5A data) (human Brd4 BD2; 81.92 nM): 2.74 and 1.64 and 1.67 and 2.48
- HTRF signal, normalized (Figure 5A data) (human Brd4 BD2; 512 nM): 2.01 and 2.50 and 2.14 and 2.65
- remaining activity at 0.0021 µM (CaBdf1 BD1; CaBD1, 2.10 nM, read-out: HTRF signal, normalized (Figure 5A data)): 103%
- remaining activity at 0.01311 µM (CaBdf1 BD1; CaBD1, 13.11 nM, read-out: HTRF signal, normalized (Figure 5A data)): 96%
- remaining activity at 0.03277 µM (CaBdf1 BD1; CaBD1, 32.77 nM, read-out: HTRF signal, normalized (Figure 5A data)): 90.6%
- remaining activity at 0.08192 µM (CaBdf1 BD1; CaBD1, 81.92 nM, read-out: HTRF signal, normalized (Figure 5A data)): 66.5%
- remaining activity at 0.2048 µM (CaBdf1 BD1; CaBD1, 204.8 nM, read-out: HTRF signal, normalized (Figure 5A data)): 27%
- remaining activity at 0.512 µM (CaBdf1 BD1; CaBD1, 512 nM, read-out: HTRF signal, normalized (Figure 5A data)): 5.16%
- IC50 (CaBdf1 BD1; Fig 5A, four replicates, read-out: IC50 (μM) BD1, C. alb. Bdf1): 0.27 ± 0.02 µM
- remaining activity at 0.00524 µM (CaBdf1 BD1; [2]): 103%
- remaining activity at 0.01311 µM (CaBdf1 BD1; [2]): 99.9%
- remaining activity at 1.28 µM (CaBdf1 BD1; [2]): 2.74%
- remaining activity at 3.2 µM (CaBdf1 BD1; [2]): 1.61%
- %Growth ([1]; Fig 3E, 50 µM, BDF1-hBD1-flag, Exp 1-3): 2.33% and 1.84% and 1.76%
- %Growth ([1]; Fig 3E, 50 µM, BDF1-hBD2-flag, Exp 1-3): 3.8% and 4.25% and 4%
- %Growth ([1]; Fig 3E, 50 µM, humanized BDF1-flag, Exp 1-3): 0.38% and 2.64% and 0.389%
- %Growth ([1]; Fig 3F, BDF1-hBD1-flag, 0.0137 µM): 90.66% and 83.58% and 76.59%
- %Growth ([1]; Fig 3F, BDF1-hBD1-flag, 0.0412 µM): 77.41% and 78.96% and 63.08%
- %Growth ([1]; Fig 3F, BDF1-hBD1-flag, 0.1235 µM): 61.07% and 68.69% and 57.31%
- %Growth ([1]; Fig 3F, BDF1-hBD1-flag, 0.3704 µM): 41.42% and 40.29% and 42%
- %Growth ([1]; Fig 3F, BDF1-hBD1-flag, 1.1111 µM): 16.57% and 19.25% and 16.52%
- %Growth ([1]; Fig 3F, BDF1-hBD1-flag, 3.3333 µM): 5.27% and 7.44% and 4.82%
- %Growth ([1]; Fig 3F, BDF1-hBD2-flag, 0.0137 µM): 47.68% and 58.64% and 43.37%
- %Growth ([1]; Fig 3F, BDF1-hBD2-flag, 0.0412 µM): 32.5% and 27.54% and 41.03%
- %Growth ([1]; Fig 3F, BDF1-hBD2-flag, 0.1235 µM): 16.07% and 15.16% and 20.65%
- %Growth ([1]; Fig 3F, BDF1-hBD2-flag, 0.3704 µM): 9.64% and 8.03% and 12.17%
- %Growth ([1]; Fig 3F, BDF1-hBD2-flag, 1.1111 µM): 6.25% and 6.02% and 7.12%
- %Growth ([1]; Fig 3F, BDF1-hBD2-flag, 3.3333 µM): 4.46% and 5.24% and 6.4%
- %Growth ([1]; Fig 3F, humanized BDF1-flag, 0.0137 µM): 42.92% and 50.6% and 44.95%
- %Growth ([1]; Fig 3F, humanized BDF1-flag, 0.0412 µM): 25.63% and 22.37% and 34.68%
- %Growth ([1]; Fig 3F, humanized BDF1-flag, 0.1235 µM): 13.13% and 10.59% and 17.61%
